Laboratory results published in the NIST ThermoML archive (doi:10.1016/j.tca.2011.10.013).

Test: mn = molality of the nth substance listed, in mol/kg
Conditions: 101 kPa, Liquid; for speed of sound: Sing-around technique in a fixed-path interferometer; for mass density: Vibrating tube method

O=C[C@H](O)[C@@H](O)[C@H](O)[C@H](O)CO [D-glucose] + O
m1 = 1.13
Conditions	mass density [kg/m3]	speed of sound [m/s]
298.15 K	1065.07	1564.8
303.15 K	1063.3	1574.3
308.15 K	1061.36	1582.4
313.15 K	1059.24	1589.1
318.15 K	1056.98	1594.4
323.15 K	1054.25	1598.5

OC[C@H]1O[C@@](CO)(O[C@H]2O[C@H](CO)[C@@H](O)[C@H](O)[C@H]2O)[C@@H](O)[C@@H]1O [D-sucrose] + O
m1 = 1.274
Conditions	mass density [kg/m3]	speed of sound [m/s]
298.15 K	1127.37	1607.9
303.15 K	1125.37	1615.6
308.15 K	1123.2	1621.9
313.15 K	1120.73	1627
318.15 K	1118.18	1630.8
323.15 K	1115.44	1633.3
